Molecules are shown by their SMILES.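 1) Cells in 96-well plates. 2) Compound, 48 h, 5 concentrations. 3) Linear interpolation between surrounding doses. 4) Unreached endpoint = highest concentration. At the TGI there is no net growth.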 Where a SMILES comes first, the peptide text is derived from it. [ ]: non-standard residue; d: D form. The star is where a group is joined. ξ: configuration not given here. ξF = NC(Cc1ccccc1)C(=O)O; Cbz = O=C(OCc1ccccc1)*

For the first assay, the system named is OVCAR-4 ovarian. Put plainly: NCI anticancer screen, dose series, 48 h.
Consider `CC1(C)O[C@@H]2[C@@H](COC(C)(C)O[C@H]2C2SCCCS2)O1`, for which the TGI was over 100 µM.
For `O=C(O)CCCc1ccc2c(c1)CC1(C2)Cc2cc3c(cc2C1)CCCC3`, the TGI worked out at 45.6 µM.
Consider `COC(=O)/C=C(\C(=O)OC)c1cc(C)c2cc(C(C)C)ccc(C)c1-2`, for which the TGI was over 100 µM.
In the case of `C=CCON(C(=O)OC(C)(C)C)C(C)(C)C`, the TGI is over 100 µM.
The compound `O=[N+]([O-])c1cccc2nc3ccccc3c(NCCCCCNc3c4ccccc4nc4cccc([N+](=O)[O-])c34)c12` displayed a TGI of 0.738 µM.
In the case of `Cc1cc2nc3c(C#N)c(-c4ccccc4)/c(=C\Nc4ccc(F)cc4)c(=O)n3c2cc1C`, the TGI is over 100 µM.
In turn, `COC(=O)c1c(C)cccc1/C=C1\Cc2ccc(C)c(C)c2C1=O` registered a TGI of over 100 µM.
Regarding `O=C(c1ccccc1)C1(Br)S(=O)(=O)OCCOS1(=O)=O`, the TGI is over 100 µM.
With `C1CCC(N=C2N(C3CCCCC3)C(=NC3CCCCC3)N2C2CCCCC2)CC1`, the TGI is over 100 µM.
The compound `O=S(=O)(/N=C(\NO)Nc1ccc(Cl)cc1)c1cc(C(F)(F)F)cc(C(F)(F)F)c1` yielded a TGI of 31.6 µM.

The next assay relates to OVCAR-5 ovarian. Put plainly: NCI anticancer screen, dose series, 48 h.
Regarding `C1CSCCSCCCS[C@@H]2CCCCC2SC1` (stereo not given in full), the TGI was over 100 µM.
On the same count and under the same terms, next, `O=[N+]([O-])c1ccc(/C=N/Nc2nc3ccccc3[nH]2)o1`: 49.8 µM; `NNc1nnc(CCCCCCCCc2nnc(NN)n2N)n1N`: over 100 µM; `CCOC(=O)c1c(NC(=O)c2ccccc2)c(C#N)c2n1CCCCC2`: over 100 µM.
Compound `O=c1cc(Nc2cccc(O)c2)[nH]c(=O)[nH]1` displayed a TGI of over 100 µM.
For the compound `CCN1/C(=C/C#C/C(C)=C\c2sc3ccc(Cl)cc3[n+]2CC)Sc2ccc(Cl)cc21`, the TGI turned out to be 21.3 µM.
For the compound `CSc1nncc(-c2cc3c(c(SC)n2)CCCC3)n1`, the TGI was over 100 µM.
As for `Cn1c2ccccc2c(=O)c2c(O)cc3c(c21)C1OCC(C)(O)C1O3` (stereo not given), the TGI was over 100 µM.
For the compound `COC(=O)[C@@H]1CO[C@H](C(C)(C)C)N1C(=O)N1C=CC(=O)C[C@H]1C`, the TGI was over 100 µM.
Take `COc1cc(C2c3cc4c(cc3OC(NN)C2C)OCO4)cc(OC)c1O` (stereo not given): the TGI is over 100 µM.
For the compound `COC(=O)[C@@]12OC[C@]34C([C@@H](O)C1O)[C@@]1(C)CC(=O)C(OC(=O)CC(C)C(F)(F)F)=C(C)C1C[C@H]3OC(=O)[C@H](O)[C@H]42` (stereo not given in full), the TGI is over 62.5 µM.
The compound `NC1=NC2(COC(c3ccccc3)(c3ccccc3)c3ccccc3)OC(COC(c3ccccc3)(c3ccccc3)c3ccccc3)C(O)C2O1` (stereo not given) returned a TGI of over 100 µM.
The same measure, in the same setting: the figure for `CCOC(=O)CNC(=O)C(Cc1ccccc1)NC(=O)OCc1ccccc1` (stereo not given) (Cbz-[ξF]-Gly-OEt) is over 100 µM; for `CC1(C)O[C@@H]2[C@@H](COC(C)(C)O[C@H]2C2SCCCS2)O1` it is over 100 µM.
On the same count and under the same terms, next, `O=C(CCc1cc(O)cc(O)c1)NCCc1cc(O)cc(OCc2ccccc2)c1`: over 100 µM.
`O=C(O)CCCc1ccc2c(c1)CC1(C2)Cc2cc3c(cc2C1)CCCC3` came in with a TGI of 41.3 µM.
Regarding `COC(=O)/C=C(\C(=O)OC)c1cc(C)c2cc(C(C)C)ccc(C)c1-2`, the TGI is over 100 µM.
Consider `C=CCON(C(=O)OC(C)(C)C)C(C)(C)C`, for which the TGI is over 100 µM.
Turning to `O=[N+]([O-])c1cccc2nc3ccccc3c(NCCCCCNc3c4ccccc4nc4cccc([N+](=O)[O-])c34)c12`, the TGI came to 0.935 µM.
In turn, `Cc1cc2nc3c(C#N)c(-c4ccccc4)/c(=C\Nc4ccc(F)cc4)c(=O)n3c2cc1C` returned a TGI of over 100 µM.
As for `COC(=O)c1c(C)cccc1/C=C1\Cc2ccc(C)c(C)c2C1=O`, the TGI is over 100 µM.
For `O=C(c1ccccc1)C1(Br)S(=O)(=O)OCCOS1(=O)=O`, the TGI is over 100 µM.
Turning to `C1CCC(N=C2N(C3CCCCC3)C(=NC3CCCCC3)N2C2CCCCC2)CC1`, the TGI is over 100 µM.
`O=S(=O)(/N=C(\NO)Nc1ccc(Cl)cc1)c1cc(C(F)(F)F)cc(C(F)(F)F)c1` gave a TGI of 30.1 µM.

The next assay concerns OVCAR-8 ovarian. Briefly: NCI anticancer screen, dose series, 48 h.
In turn, `C1CSCCSCCCS[C@@H]2CCCCC2SC1` (stereo not given in full) had a TGI of over 100 µM.
Take `O=[N+]([O-])c1ccc(/C=N/Nc2nc3ccccc3[nH]2)o1`: the TGI was 38 µM.
The compound `NNc1nnc(CCCCCCCCc2nnc(NN)n2N)n1N` had a TGI of 76.7 µM.
For `CCOC(=O)c1c(NC(=O)c2ccccc2)c(C#N)c2n1CCCCC2`, the TGI was over 100 µM.
Still for that read-out and setting: next, `O=c1cc(Nc2cccc(O)c2)[nH]c(=O)[nH]1`: over 100 µM; `CCN1/C(=C/C#C/C(C)=C\c2sc3ccc(Cl)cc3[n+]2CC)Sc2ccc(Cl)cc21`: 17 µM; `CSc1nncc(-c2cc3c(c(SC)n2)CCCC3)n1`: over 100 µM.
Compound `O=C1c2ccccc2N2OC3(N4CCOCC4)CCCC3C12c1ccccc1` (stereo not given) had a TGI of over 100 µM.
Still for that read-out and setting: the figure for `Cn1c2ccccc2c(=O)c2c(O)cc3c(c21)C1OCC(C)(O)C1O3` (stereo not given) is over 100 µM.
On the same count and under the same terms, the figure for `COC(=O)[C@@H]1CO[C@H](C(C)(C)C)N1C(=O)N1C=CC(=O)C[C@H]1C` is over 100 µM; for `COc1cc(C2c3cc4c(cc3OC(NN)C2C)OCO4)cc(OC)c1O` (stereo not given) it is 67.8 µM.
In turn, `COC(=O)[C@@]12OC[C@]34C([C@@H](O)C1O)[C@@]1(C)CC(=O)C(OC(=O)CC(C)C(F)(F)F)=C(C)C1C[C@H]3OC(=O)[C@H](O)[C@H]42` (stereo not given in full) came in with a TGI of over 62.5 µM.
The compound `NC1=NC2(COC(c3ccccc3)(c3ccccc3)c3ccccc3)OC(COC(c3ccccc3)(c3ccccc3)c3ccccc3)C(O)C2O1` (stereo not given) gave a TGI of over 100 µM.
On to `CCOC(=O)CNC(=O)C(Cc1ccccc1)NC(=O)OCc1ccccc1` (stereo not given) (Cbz-[ξF]-Gly-OEt), for which the TGI is over 100 µM.
In the case of `CC1(C)O[C@@H]2[C@@H](COC(C)(C)O[C@H]2C2SCCCS2)O1`, the TGI was over 100 µM.
`O=C(CCc1cc(O)cc(O)c1)NCCc1cc(O)cc(OCc2ccccc2)c1` came in with a TGI of over 100 µM.
Same read-out and setting: next, `O=C(O)CCCc1ccc2c(c1)CC1(C2)Cc2cc3c(cc2C1)CCCC3`: 31.4 µM; `COC(=O)/C=C(\C(=O)OC)c1cc(C)c2cc(C(C)C)ccc(C)c1-2`: over 100 µM; `C=CCON(C(=O)OC(C)(C)C)C(C)(C)C`: over 100 µM.
Regarding `O=[N+]([O-])c1cccc2nc3ccccc3c(NCCCCCNc3c4ccccc4nc4cccc([N+](=O)[O-])c34)c12`, the TGI was 0.348 µM.
Regarding `Cc1cc2nc3c(C#N)c(-c4ccccc4)/c(=C\Nc4ccc(F)cc4)c(=O)n3c2cc1C`, the TGI is over 100 µM.
Consider `COC(=O)c1c(C)cccc1/C=C1\Cc2ccc(C)c(C)c2C1=O`, for which the TGI is over 100 µM.
`O=C(c1ccccc1)C1(Br)S(=O)(=O)OCCOS1(=O)=O` gave a TGI of over 100 µM.
As to `C1CCC(N=C2N(C3CCCCC3)C(=NC3CCCCC3)N2C2CCCCC2)CC1`, the TGI was over 100 µM.
Compound `O=S(=O)(/N=C(\NO)Nc1ccc(Cl)cc1)c1cc(C(F)(F)F)cc(C(F)(F)F)c1` had a TGI of 34.5 µM.

For another assay, the system named is SK-MEL-5 melanoma. Briefly: NCI anticancer screen, dose series, 48 h.
Take `C1CSCCSCCCS[C@@H]2CCCCC2SC1` (stereo not given in full): the TGI is over 100 µM.
`O=[N+]([O-])c1ccc(/C=N/Nc2nc3ccccc3[nH]2)o1` gave a TGI of 14.3 µM.
`NNc1nnc(CCCCCCCCc2nnc(NN)n2N)n1N` returned a TGI of over 100 µM.
`CCOC(=O)c1c(NC(=O)c2ccccc2)c(C#N)c2n1CCCCC2` showed a TGI of over 100 µM.
On the same count and under the same terms, next, `O=c1cc(Nc2cccc(O)c2)[nH]c(=O)[nH]1`: over 100 µM.
On the same count and under the same terms, the figure for `CCN1/C(=C/C#C/C(C)=C\c2sc3ccc(Cl)cc3[n+]2CC)Sc2ccc(Cl)cc21` is 5.26 µM.

For the origin of these results see PubChem BioAssay (NCI).
